Test results from patent US10584105B2, “Immunoproteasome inhibitor analogs” (The Regents of the University of California, priority 2016, dated 2020).

Experiments:
[1] = test system: SK—N—SH neuroblastoma cells; experiment: Cell viability assay (MTS), SK—N—SH neuroblastoma cells; assay type: cell-based, human; conditions: for effect on viability of SK—N—SH cells: highest concentration tested (1 μM), 24 hours exposure
Protocol: (§1) (A) MYCN2, (B) SK—N—Be(2)c, and (C) SK—N—SH neuroblastoma cells were treated with 1 (NAM-105), 5 (NAM-93), or 6 (NAM-95) for 24 hours at three different concentrations (0.01, 0.1, and 1 μM). Bortezomib (BTZ) was included as a control. Cell viability was measured using the MTS reagent as described in the Methods section. Data shown are representative of two independent experiments, each performed in triplicate wells (n=6).
(§2) To determine the effect of the thiasyrbactins proteasome inhibitors on the viability of cancer cells, three different human neuroblastoma (NB) cell lines were used. BTZ was included as a control. SK—N—Be2c, SK—N—SH cells (ATCC, Manassas, Va.) and MYCN2 cells were plated overnight in RPMI media containing 10% heat-inactivated fetal bovine serum (FBS) (Invitrogen, Carlsbad, Calif., USA), supplemented with penicillin (100 U/ml) and streptomycin (100 μg/ml). Cells were cultured at 37° C. in a humidified atmosphere containing 5% CO2 and treated with 0.01, 0.1 and 1 μM proteasome inhibitor for 24 hours. Cell viability was determined using the Cell Titer 96 AQueous One Cell Proliferation Assay (Promega) reagent MTS by measuring absorbance at 490 nm using a Multi-Mode Synergy plate reader as Ibarra-Rivera et al. Assays were done in duplicate with triplicate wells of treatment per experiment (n=6). Data were expressed as the average cell viability relative to untreated control cells using Microsoft Excel™.

[2] = test system: MYCN2 neuroblastoma cells; experiment: Cell viability assay (MTS), MYCN2 neuroblastoma cells; assay type: cell-based, human; conditions: for effect on viability of MYCN2 cells: highest concentration tested (1 μM), 24 hours exposure
Protocol: as §1, §2

[3] = target: T1, immunoproteasome from human peripheral blood mononuclear cells (PBMCs), C-L (β1) activity (Homo sapiens, UniProt P28065); experiment: In vitro proteasome activity assay, immunoproteasome, C-L (β1); assay type: biochemical
T1 construct: purchased Boston Biochem; host or cells: human peripheral blood mononuclear cells (native, purified)
Protocol: (§3) To determine the anti-proteasome activity of the thiasyrbactins in the in vitro environment, three catalytic activities (β1, β2, β5) of the proteasome were measured as described in Ibarra-Rivera et al., Tetrahedron 67:9950-6 (2011)). […] Purified 20S constitutive proteasome from human erythrocytes or immunoproteasome from human peripheral blood mononuclear cells (PBMCs) (Boston Biochem, Cambridge, Mass.) and luminogenic substrates Z-LRR-Glo, Z-nLPnLD-Glo, and Suc-LLVY-Glo (Promega, Fitchburg, Wis.) specific for the β1, β2, and β5 (also referred to as T-L, C-L, and CT-L) catalytic subunit activities, respectively, were used. […] Equal volume of the appropriate luminogenic substrate was added to each reaction and luminescence was measured 10 minutes later using a Multi-Mode Synergy (Biotek, Inc., Winooski, Vt.) plate reader. […] The Ki-50 values for each catalytic activity were determined for each of the inhibitors using Graphpad Prism 5 software (La Jolla, Calif.) and averaged using Microsoft Excel (Redmond, Wash.).
(§4) The thiasyrbactins were evaluated for their ability to inhibit each of the catalytic subunits of the constitutive and immunoproteasomes as well as for cytotoxic activity against neuroblastoma cancer cells. […]

[4] = test system: U266 multiple myeloma (MM) cells; experiment: Cell viability (MTS), U266 multiple myeloma cells; assay type: cell-based; conditions: Homo sapiens, U-266; 24 hours, MTS assay, N=3; read-out: IC-50 cell viability U266 cells
Protocol: (§5) N=3. Cells were incubated for 24 hours in the presence of 1 (NAM-105), 5 (NAM-93), 6 (NAM-95) or DMSO (control) and cell viability measured using the MTS assay. IC-50s for ARD cells are 4.085±0.865 μM (5, NAM-93), N/A (6, NAM-95), and 1.673±0.337 μM (1, NAM-105). IC-50 for U266 cells are 3.308±0.916 μM (5, NAM-93), N/A (6, NAM-95), and 1.474±0.577 μM (1, NAM-105). N/A; not applicable (50% inhibition not reached at tested concentrations).

[5] = target: T2, 20S constitutive proteasome from human erythrocytes, CT-L (β5) activity (Homo sapiens, UniProt P20618+P28074); experiment: In vitro proteasome activity assay, constitutive proteasome, CT-L (β5); assay type: biochemical; conditions: 1 μM
T2 construct: purchased Boston Biochem; host or cells: human erythrocytes (native, purified)
Protocol: as §3, §4

[6] = target: T3, immunoproteasome from human peripheral blood mononuclear cells (PBMCs), CT-L (β5) activity (Homo sapiens, UniProt P20618+P28062); experiment: In vitro proteasome activity assay, immunoproteasome, CT-L (β5); assay type: biochemical; conditions: for effect on CT-L activity of the immunoproteasome: at ≤10 μM; for effect on CT-L (chymotrypsin-like) activity of the immunoproteasome (FIG. 5): 1.0 μM, 2 hours
T3 construct: purchased Boston Biochem; host or cells: human peripheral blood mononuclear cells (native, purified)
Protocol: To determine the anti-proteasome activity of the thiasyrbactins in the in vitro environment, three catalytic activities (β1, β2, β5) of the proteasome were measured as described in Ibarra-Rivera et al., Tetrahedron 67:9950-6 (2011)). […] Purified 20S constitutive proteasome from human erythrocytes or immunoproteasome from human peripheral blood mononuclear cells (PBMCs) (Boston Biochem, Cambridge, Mass.) and luminogenic substrates Z-LRR-Glo, Z-nLPnLD-Glo, and Suc-LLVY-Glo (Promega, Fitchburg, Wis.) specific for the β1, β2, and β5 (also referred to as T-L, C-L, and CT-L) catalytic subunit activities, respectively, were used. Briefly, 2.2 ng/μL of constitutive proteasome and immunoproteosome were incubated with increasing concentration of proteasome inhibitor (0 to 10 μM) in 10 mM HEPES, pH 7.3, for two hours at 37° C. Equal volume of the appropriate luminogenic substrate was added to each reaction and luminescence was measured 10 minutes later using a Multi-Mode Synergy (Biotek, Inc., Winooski, Vt.) plate reader. Assays were done in triplicate (n=3). The Ki-50 values for each catalytic activity were determined for each of the inhibitors using Graphpad Prism 5 software (La Jolla, Calif.) and averaged using Microsoft Excel (Redmond, Wash.).
The thiasyrbactins were evaluated for their ability to inhibit each of the catalytic subunits of the constitutive and immunoproteasomes as well as for cytotoxic activity against neuroblastoma cancer cells. To test the inhibitory activity of 1 (NAM-105), 5 (NAM-93), and 6 (NAM-95), an in vitro assay was performed to test the effect of the thiasyrbactins on the three sub-catalytic activities (i.e., the CT-L, C-L, and T-L activities) of the constitutive proteasome and the immunoproteasome (Table 5).

[7] = test system: ARD multiple myeloma (MM) cells; experiment: Cell viability (MTS), ARD multiple myeloma cells; assay type: cell-based; conditions: Homo sapiens, 24 hours, MTS assay, N=3, read-out: IC-50 cell viability ARD cells
Protocol: as §5

[8] = test system: SK—N—Be(2)c neuroblastoma cells; experiment: Cell viability assay (MTS), SK—N—Be(2)c neuroblastoma cells; assay type: cell-based, human; conditions: highest concentration tested (1 μM), 24 hours exposure
Protocol: as §1
as §2, with “Cells were cultured at 37° C. in a humidified atmosphere containing 5% CO2 and treated with 0.01, 0.1 and 1 μM proteasome inhibitor for 24 hours.” left out

[9] = target: T4, immunoproteasome from human peripheral blood mononuclear cells (PBMCs), T-L (β2) activity (Homo sapiens, UniProt P40306+P49720); experiment: In vitro proteasome activity assay, immunoproteasome, T-L (β2); assay type: biochemical; conditions: 1 μM
T4 construct: purchased Boston Biochem; host or cells: human peripheral blood mononuclear cells (native, purified)
Protocol: as §3, §4

| SMILES | effect on C-L activity of the immunoproteasome [3] | IC50 [4] | effect on CT-L activity of the immunoproteasome [6] | IC50 [7] | effect on viability of SK—N—Be(2)c cells [8] | effect on viability of SK—N—SH cells [1] | effect on viability of MYCN2 cells [2] | inhibition vs. the trypsin-like activity of the immunoproteasome (screen, FIG. 5) [9] | effect on CT-L (chymotrypsin-like) activity of the immunoproteasome (FIG. 5) [6] | also measured |
| --- | --- | --- | --- | --- | --- | --- | --- | --- | --- | --- |
| CC(C)C[C@H](NC(=O)[C@H](Cc1ccccc1)NC(=O)c1cnccn1)B(O)O [BTZ, bortezomib, reference compound] | – | – | – | – | – | – | – | – | – | cytotoxic effects in SK—N—SH cells ([1]; 0.1-1 μM, 24 hours): strong cytotoxic effects; cytotoxic effects in MYCN2 cells ([2]; 0.1-1 μM, 24 hours): strong cytotoxic effects |
| CCCCCCCCCCCCNC(=O)N[C@H](C(=O)N[C@H]1CSCCNC(=O)/C=C/[C@H](C)NC1=O)C(C)C [Compound 1, (S)-2-(3-Dodecylureido)-3-methyl-N-((8S,11R,E)-8-methyl-5,10-dioxo-1-thia-4,9-diazacyclododec-6-en-11-yl)butanamide] | no effect | 1470 ± 577 nM | no effect | 1670 ± 337 nM | – | – | – | – | – | viability of SK—N—SH cells, % of control (DMSO) ([1]; 24 hours, of control (DMSO)): 30-50%; viability of MYCN2 cells, % of control (DMSO) ([2]; 24 hours, of control (DMSO)): 30-50%; activity vs. the chymotrypsin-like activity of the constitutive proteasome (screen, FIG. 5) [5]: greatest activity |
| CCCCCCCCCCCCNC(=O)N[C@H](C(=O)N[C@H]1C[S+]([O-])CCNC(=O)/C=C/[C@H](C)NC1=O)C(C)C (stereo partly drawn) [Compound 2, (2S)-2-(3-Dodecylureido)-3-methyl-N-((8S,11R,E)-8-methyl-1-oxido-5,10-dioxo-1-thia-4,9-diazacyclododec-6-en-11-yl)butanamide] | – | – | – | – | minimal effects | minimal effects | minimal effects | – | – | – |
| CC(C)Cc1ccc([C@H](C)C(=O)N[C@H](C(=O)N[C@H]2CSCCNC(=O)/C=C/[C@H](C)NC2=O)C(C)C)cc1 [Compound 5, (S)-2-((S)-2-(4-Isobutylphenyl)propanamido)-3-methyl-N-((8S,11R,E)-8-methyl-5,10-dioxo-1-thia-4,9-diazacyclododec-6-en-11-yl)butanamide] | no effect | 3310 ± 916 nM | no effect | 4080 ± 865 nM | minimal effects | minimal effects | minimal effects | good inhibition | stimulate | – |
| CC(C)[C@H](NC(=O)c1cnccn1)C(=O)N[C@H]1CSCCNC(=O)/C=C/[C@H](C)NC1=O [Compound 6, N—((S)-3-Methyl-1-(((8S,11R,E)-8-methyl-5,10-dioxo-1-thia-4,9-diazacyclododec-6-en-11-yl)amino)-1-oxobutan-2-yl)pyrazine-2-carboxamide] | – | – | – | – | – | – | – | good inhibition | stimulate | – |
